Assays:
Format in all cases: in vivo
[1] = tested on: Nightshade; experiment: Test C preemergence
[2] = tested on: Sunflower; experiment: Test C preemergence; conditions: Rate 125 g/ha; scale 0 to 100, 0 no effect, 100 complete control
[3] = tested on: Surinam grass (Brachiaria decumbens); experiment: Test C preemergence
Outline: (§1)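 Visual 0–100 rating vs controls (0 = no effect, 100 = complete control) at 12–14 d, greenhouse. Compounds in non-phytotoxic solvent + surfactant; pre: sprayed after seeding; post: 1–4-leaf plants, 2–18 cm.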

[4] = tested on: bermudagrass (Cynodon dactylon); experiment: Test C preemergence
Outline: as §1

[5] = tested on: cocklebur (Xanthium strumarium); experiment: Test C preemergence; conditions: preemergence
Outline: as §1

[6] = tested on: common ragweed (Ambrosia elatior); experiment: Test C preemergence
Outline: as §1

[7] = tested on: corn (Zea mays); experiment: Test C preemergence
Outline: as §1

[8] = tested on: crabgrass (Digitaria sanguinalis); experiment: Test C preemergence
Outline: as §1

[9] = tested on: giant foxtail (Setaria faberii); experiment: Test C preemergence
Outline: as §1

[10] = tested on: goosegrass (Eleusine indica); experiment: Test C preemergence
Outline: as §1

[11] = tested on: johnsongrass (Sorghum halepense); experiment: Test C preemergence
Outline: as §1

[12] = tested on: kochia (Kochia scoparia); experiment: Test C preemergence
Outline: as §1

[13] = tested on: morningglory (Ipomoea hederacea); experiment: Test C preemergence; conditions: preemergence
Outline: as §1

[14] = tested on: pigweed (Amaranthus retroflexus); experiment: Test C preemergence
Outline: as §1

[15] = tested on: soybean (Glycine max); experiment: Test C preemergence
Outline: as §1

[16] = tested on: velvetleaf (Abutilon theophrasti); experiment: Test C preemergence
Outline: as §1

[17] = tested on: woolly cupgrass (Eriochloa villosa); experiment: Test C preemergence
Outline: as §1

[18] = tested on: yellow nutsedge (Cyperus esculentus); experiment: Test C preemergence
Outline: as §1

[19] = tested on: barnyardgrass (Echinochloa crus-galli); experiment: Test C flooded paddy test; conditions: for Barnyardgrass plant response rating: Flooded Paddy, scale 0 to 100, 0 no effect, 100 complete control
Outline: (§2)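 2-leaf-stage plants, flooded paddy; treated; greenhouse 12–14 days; compared with controls by eye; rated 0–100 (0 none, 100 complete control).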

[20] = tested on: duck salad (Heteranthera limosa); experiment: Test C flooded paddy test; conditions: for Ducksalad plant response rating: Flooded Paddy, scale 0 to 100, 0 no effect, 100 complete control
Outline: as §2

[21] = tested on: rice (Oryza saliva); experiment: Test C flooded paddy test
Outline: as §2

[22] = tested on: smallflower flatsedge (Cyperus difformis); experiment: Test C flooded paddy test; conditions: for Flatsedge plant response rating: Flooded Paddy, scale 0 to 100, 0 no effect, 100 complete control
Outline: as §2

[23] = tested on: Nightshade; experiment: Test C preemergence; conditions: Rate 500 g/ha, visual evaluation after 12 to 14 days
[24] = Rate 125 g/ha, scale 0 to 100, 0 no effect, 100 complete control
[25] = Rate 250 g/ha, scale 0 to 100, 0 no effect, 100 complete control
[26] = preemergence, Rate 62 g/ha, scale 0 to 100
[27] = preemergence, Rate 500 g/ha, visual evaluation after 12 to 14 days
[28] = preemergence, Rate 250 g/ha, scale 0 to 100, 0 no effect, 100 complete control
[29] = flooded paddy test, Rate 125 g/ha, scale 0 to 100 (0 no effect, 100 complete control)
[30] = flooded paddy test, Rate 16 g/ha, visually evaluated after 12 to 14 days, 0 = no effect, 100 = complete control
[31] = flooded paddy test, Rate 62 g/ha, visually evaluated after 12 to 14 days, 0 = no effect, 100 = complete control
[32] = flooded paddy test, under head Rate 16 g/ha, (own rate not given), after 12 to 14 days

What does the source list for CCOc1cccc(N2CCC(n3ccc(C(C)(C)C)n3)C2=O)c1 (centres unmarked) [Compound 130]?
Plant response rating, Nightshade ([1]; Rate 62 g/ha, scale 0 to 100): 100; Plant response rating, Nightshade [1, 24]: 100; Plant response rating, Nightshade [1, 25]: 100; Plant response rating, Sunflower [2]: 60; Plant response rating, Surinam grass [3, 24]: 100; Plant response rating, Surinam grass [3, 26]: 100; Plant response rating (0 to 100), Surinam grass [3, 27]: 100; Plant response rating, Surinam grass [3, 28]: 100; Plant response rating, Bermudagrass [4, 24]: 100; Plant response rating, Bermudagrass [4, 26]: 100; Plant response rating (0 to 100 where 0 is no effect and 100 is complete control), Bermudagrass [4, 27]: 100; Plant response rating, Bermudagrass [4, 28]: 100; Plant response rating, Cocklebur ([5]; Rate 62 g/ha, scale 0 to 100): 0; Plant response rating (0 to 100), Cocklebur ([5]; Rate 500 g/ha, visual evaluation after 12 to 14 days): 0; Plant response rating, Cocklebur [5, 25]: 0; Plant response rating, Ragweed, Common [6, 24]: 100; Plant response rating, Ragweed, Common [6, 26]: 100; Plant response rating (0 to 100), Ragweed, Common [6, 27]: 100; Plant response rating, Ragweed, Common [6, 28]: 100; Plant response rating, Corn [7, 24]: 80; Plant response rating, Corn [7, 26]: 40; Plant response rating (0 to 100), Corn [7, 27]: 100; Plant response rating, Corn [7, 28]: 90; Plant response rating, Crabgrass [8, 24]: 100; Plant response rating, Crabgrass [8, 26]: 100; Plant response rating (0 to 100), Crabgrass [8, 27]: 100; Plant response rating, Crabgrass [8, 28]: 100; Plant response rating, Foxtail, Giant [9, 24]: 100; Plant response rating, Foxtail, Giant [9, 26]: 90; Plant response rating (0 to 100), Foxtail, Giant [9, 27]: 100; Plant response rating, Foxtail, Giant [9, 28]: 100; Plant response rating, Goosegrass [10, 24]: 100; Plant response rating, Goosegrass [10, 26]: 100; Plant response rating (0 to 100), Goosegrass [10, 27]: 100; Plant response rating, Goosegrass [10, 28]: 100; Plant response rating, Johnsongrass [11, 24]: 90; Plant response rating, Johnsongrass [11, 26]: 0; Plant response rating (0 to 100), Johnsongrass [11, 27]: 100; Plant response rating, Johnsongrass [11, 28]: 100; Plant response rating, Kochia [12, 24]: 100; Plant response rating, Kochia [12, 26]: 100; Plant response rating (0 to 100), Kochia [12, 27]: 100; Plant response rating, Kochia [12, 28]: 100; Plant response rating, Morningglory ([13]; Rate 62 g/ha, scale 0 to 100): 70; Plant response rating, Morningglory [13, 25]: 90; Plant response rating, Pigweed [14, 24]: 100; Plant response rating, Pigweed [14, 26]: 100; Plant response rating (0 to 100), Pigweed [14, 27]: 100; Plant response rating, Pigweed [14, 28]: 100; Plant response rating, Soybean [15, 24]: 30; Plant response rating, Soybean [15, 26]: 30; Plant response rating (0 to 100), Soybean [15, 27]: 60; Plant response rating, Soybean [15, 28]: 40; Plant response rating, Velvetleaf [16, 24]: 60; Plant response rating, Velvetleaf [16, 26]: 60; Plant response rating (0 to 100), Velvetleaf [16, 27]: 60; Plant response rating, Velvetleaf [16, 28]: 60; Plant response rating, Cupgrass, Woolly [17, 24]: 100; Plant response rating, Cupgrass, Woolly [17, 26]: 100; Plant response rating (0 to 100), Cupgrass, Woolly [17, 27]: 100; Plant response rating, Cupgrass, Woolly [17, 28]: 100; Plant response rating, Nutsedge [18, 24]: 80; Plant response rating, Nutsedge [18, 26]: 30; Plant response rating (0 to 100), Nutsedge [18, 27]: 100; Plant response rating, Nutsedge [18, 28]: 100; Barnyardgrass plant response rating ([19]; Rate 250 g/ha): 100; Barnyardgrass plant response rating ([19]; Rate 500 g/ha): 100; Plant response rating, Barnyardgrass [19, 29]: 100; Plant response rating (scale 0 to 100), Barnyardgrass [19, 30]: 70; Plant response rating (scale 0 to 100), Barnyardgrass [19, 31]: 90; Plant response rating (scale 0 to 100), Barnyardgrass [19, 32]: 50; Ducksalad plant response rating ([20]; Rate 250 g/ha): 90; Ducksalad plant response rating ([20]; Rate 500 g/ha): 100; Plant response rating, Ducksalad [20, 29]: 90; Plant response rating (scale 0 to 100), Ducksalad [20, 30]: 70; Plant response rating (scale 0 to 100), Ducksalad [20, 31]: 90; Plant response rating (scale 0 to 100), Ducksalad [20, 32]: 20; Rice plant response rating ([21]; Flooded Paddy, Rate 250 g/ha, scale 0 to 100, 0 no effect, 100 complete control): 80; Plant response rating, Rice [21, 29]: 20; Plant response rating (scale 0 to 100), Rice [21, 30]: 0; Plant response rating (scale 0 to 100), Rice [21, 31]: 50; Plant response rating (scale 0 to 100), Rice [21, 32]: 0; Flatsedge plant response rating ([22]; Rate 250 g/ha): 90; Flatsedge plant response rating ([22]; Rate 500 g/ha): 90; Plant response rating, Flatsedge [22, 29]: 100; Plant response rating (scale 0 to 100), Flatsedge [22, 30]: 100; Plant response rating (scale 0 to 100), Flatsedge [22, 31]: 90; Plant response rating (scale 0 to 100), Flatsedge [22, 32]: 90; Plant response rating (0 to 100), Nightshade [23]: 100
